From patent publication US8067445B2, “N,N-disubstituted aminoalkylbiphenyl antagonists of prostaglandin D2 receptors” (Panmira Pharmaceuticals, LLC, priority 2008, dated 2011) come the findings set out here.

Some results are limits rather than exact numbers.

The target in this experiment is T1, human DP2 receptor (Homo sapiens, UniProt Q9Y5Y4).
T1 construct: expressed in transfected cells
T1 sequence (Q9Y5Y4 1-395): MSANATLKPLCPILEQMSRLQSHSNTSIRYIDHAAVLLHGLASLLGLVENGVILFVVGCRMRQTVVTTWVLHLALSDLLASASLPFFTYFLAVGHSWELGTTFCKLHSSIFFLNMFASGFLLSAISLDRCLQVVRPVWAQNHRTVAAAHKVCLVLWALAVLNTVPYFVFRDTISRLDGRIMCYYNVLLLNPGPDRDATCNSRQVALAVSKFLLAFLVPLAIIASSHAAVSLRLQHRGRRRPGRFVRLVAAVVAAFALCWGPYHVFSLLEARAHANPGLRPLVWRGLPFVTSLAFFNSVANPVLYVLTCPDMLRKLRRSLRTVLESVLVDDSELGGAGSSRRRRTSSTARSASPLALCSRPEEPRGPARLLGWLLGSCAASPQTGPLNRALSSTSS
Briefly: DP2/CRTH2 radioligand binding assay ([3H]PGD2). Particulars: [3H]PGD2 binding, membranes of HEK293 cells expressing human DP2; read-out: hDP2. As for the experimental part:
The ability of a compound to bind to the human DP2 receptor is assessed via a radioligand binding assay using [^3H]PGD2. HEK293 cells stably expressing recombinant human DP2 are resuspended in 10 mM Hepes, 7.4 containing 1 mM DTT, lysed and centrifuged at 75,000×g to pellet the membranes. The membranes are resuspended in 10 mM Hepes, 7.4 containing 1 mM DTT and 10% glycerol to approximately 5 mg protein/ml. Membranes (2-10 μg protein/well) are incubated in 96-well plates with 1 nM [^3H]PGD2 and test compound in Assay Buffer (50 mM Hepes, 10 mM MnCl2, 1 mM EDTA, plus or minus 0.2% human serum albumin, pH 7.4) for 60 minutes at room temperature. The reactions are terminated by rapid filtration through Whatman GF/C glass fibre filter plates. The filter plates were pre-soaked in 0.33% polyethylenimine for 30 minutes at room temperature then washed in Wash Buffer (50 mM Hepes, 0.5 M NaCl pH 7.4) prior to harvesting. After harvesting, the filter plates are washed 3 times with 1 ml cold Wash Buffer then dried. Scintillant is then added to the plates and the radioactivity retained on the filters is determined on a Packard TopCount (Perkin Elmer). Specific binding is determined as total radioactive binding minus non-specific binding in the presence of 10 μM PGD2. IC50s were determined using GraphPad prism analysis of drug titration curves.
In the case of `CCN(Cc1cc(-c2ncc(OC)cn2)ccc1-c1cc(CC(=O)O)ccc1OC)C(=O)C1CC1` [Compound 1-250, [2′-[(Cyclopropanecarbonyl-ethyl-amino)-methyl]-6-methoxy-4′-(5-methoxy-pyrimidin-2-yl)-biphenyl-3-yl]-acetic acid], the IC50 was less than 300 nM.
On to `CCN(Cc1cc(-c2ccc3ncccc3c2)ccc1-c1cc(CC(=O)O)ccc1OC)C(=O)C1CC1` [Compound 1-230, {2′-[(Cyclopropanecarbonyl-ethyl-amino)-methyl]-6-methoxy-4′-quinolin-6-yl-biphenyl-3-yl}-acetic acid], for which the IC50 was less than 300 nM.
For `CCN(Cc1cc(C(F)(F)F)ccc1-c1cc(CC(=O)O[C@@H]2O[C@H](C(=O)O)[C@@H](O)[C@H](O)[C@H]2O)ccc1OC)C(=O)NCc1ccccc1` [Compound 2-17, (2S,3S,4S,5R,6S)-6-{2-[2′-(3-Benzyl-1-ethyl-ureidomethyl)-6-methoxy-4′-trifluoromethyl-biphenyl-3-yl]-acetoxy}-3,4,5-trihydroxy-tetrahydro-pyran-2-carboxylic acid], the IC50 was 300 to 1000 nM.
As for `CCN(Cc1cc(C(F)(F)F)ccc1-c1cc(CC(=O)O)cc(C(F)(F)F)c1)C(=O)NCc1ccc(Cl)cc1` [Compound 1-193, {2′-[3-(4-Chloro-benzyl)-1-ethyl-ureidomethyl]-5,4′-bis-trifluoromethyl-biphenyl-3-yl}-acetic acid], the figure is less than 300 nM; as for `CCN(Cc1ccc(OC)cc1-c1cc(CC(=O)O)ccc1OC)C(=O)NCc1ccccc1` [Compound 1-197, [2′-(3-Benzyl-1-ethyl-ureidomethyl)-6,5′-dimethoxy-biphenyl-3-yl]-acetic acid], less than 300 nM; as for `CCN(Cc1cc(C(F)(F)F)ccc1-c1cc(Cl)cc(CC(=O)O)c1)C(=O)NCc1ccc(Cl)cc1` [Compound 1-192, {5-Chloro-2′-[3-(4-chloro-benzyl)-1-ethyl-ureidomethyl]-4′-trifluoromethyl-biphenyl-3-yl}-acetic acid], less than 300 nM.
Turning to `CCN(Cc1ccc(OC)cc1-c1cc(Cl)cc(CC(=O)O)c1)C(=O)C1CC1` [Compound 1-218, {5-Chloro-2′-[(cyclopropanecarbonyl-ethyl-amino)-methyl]-5′-methoxy-biphenyl-3-yl}-acetic acid], the IC50 was less than 300 nM.
Regarding `CCN(Cc1cc(C(F)(F)F)ccc1-c1cc(CC(=O)O)ccc1OC)C(=O)NCc1cccnc1` [Compound 1-198], the IC50 was less than 300 nM.
Take `CCN(Cc1cc(C(F)(F)F)ccc1-c1cc([C@H](C)C(=O)N2C(=O)O[C@@H](c3ccccc3)[C@H]2C)ccc1OC)C(=O)C1CC1` [Compound 2-13, Cyclopropanecarboxylic acid ethyl-{2′-methoxy-5′-[(S)-1-methyl-2-((4R,5S)-4-methyl-2-oxo-5-phenyl-oxazolidin-3-yl)-2-oxo-ethyl]-4-trifluoromethyl-biphenyl-2-ylmethyl}-amide]: the IC50 lay in the range of 1000 to 30000 nM.
`CCN(Cc1cc(C(F)(F)F)ccc1-c1cc(C(C)C(=O)O)ccc1OC)C(=O)NC1CC1` (centres unmarked) [Compound 1-243, 2-[2′-(3-Cyclopropyl-1-ethyl-ureidomethyl)-6-methoxy-4′-trifluoromethyl-biphenyl-3-yl]-propionic acid]: the IC50 is less than 300 nM.
`CCN(Cc1ccc(OC)cc1-c1cc(CC(=O)O)ccc1OC)C(=O)OCc1ccc(F)cc1` [Compound 1-194, (2′-{[Ethyl-(4-fluoro-benzyloxycarbonyl)-amino]-methyl}-6,5′-dimethoxy-biphenyl-3-yl)-acetic acid]: the IC50 was less than 300 nM.
Take `CCN(Cc1cc(C(F)(F)F)ccc1-c1cc(Cl)cc(CC(=O)O)c1)C(=O)NC` [Compound 1-201, [5-Chloro-2′-(1-ethyl-3-methyl-ureidomethyl)-4′-trifluoromethyl-biphenyl-3-yl]-acetic acid]: the IC50 is less than 300 nM.
As for `CCN(Cc1cc(C(F)(F)F)ccc1-c1cc([C@@H](C)C(=O)O)cc(C(F)(F)F)c1)C(=O)NCc1ccccc1` [Compound 1-239, (R)-2-[2′-(3-Benzyl-1-ethyl-ureidomethyl)-5,4′-bis-trifluoromethyl-biphenyl-3-yl]-propionic acid], the figure is less than 300 nM.
`CCN(Cc1cc(C(F)(F)F)ccc1-c1cc([C@H](C)C(=O)O)cc(C(F)(F)F)c1)C(=O)NCc1ccccc1` [Compound 1-240, (S)-2-[2′-(3-Benzyl-1-ethyl-ureidomethyl)-5,4′-bis-trifluoromethyl-biphenyl-3-yl]-propionic acid]: the IC50 is less than 300 nM.
As for `CCN(Cc1cc(C(F)(F)F)ccc1-c1cc(CC(=O)O)cc(C(F)(F)F)c1)C(=O)c1ccccc1` [Compound 1-204, {2′-[(Benzoyl-ethyl-amino)-methyl]-5,4′-bis-trifluoromethyl-biphenyl-3-yl}-acetic acid], the figure is less than 300 nM; as for `CCN(Cc1cc(C(F)(F)F)ccc1-c1cc(C(F)(F)F)cc(C(C)(C)C(=O)O)c1)C(=O)C1CC1` [Compound 1-236, 2-{2′-[(Cyclopropanecarbonyl-ethyl-amino)-methyl]-5,4′-bis-trifluoromethyl-biphenyl-3-yl}-2-methyl-propionic acid], 300 to 1000 nM.
As for `CCN(Cc1cc(-c2ccc3ncccc3c2)ccc1-c1cc(CC(=O)O)ccc1OC)C(=O)COc1ccc(Cl)cc1` [Compound 1-232, [2′-({[2-(4-Chloro-phenoxy)-acetyl]-ethyl-amino}-methyl)-6-methoxy-4′-quinolin-6-yl-biphenyl-3-yl]-acetic acid], the IC50 was less than 300 nM.
In the case of `CCN(Cc1cc(C(F)(F)F)ccc1-c1cc(CC(=O)O)ccc1OC)C(=O)CCc1ccccc1` [Compound 1-208, (2′-{[Ethyl-(3-phenyl-propionyl)-amino]-methyl}-6-methoxy-4′-trifluoromethyl-biphenyl-3-yl)-acetic acid], the IC50 was less than 300 nM.
Turning to `CCOc1ccc(-c2ccc(-c3cc(CC(=O)O)ccc3OC)c(CN(CC)C(=O)CCc3ccccc3)c2)cn1` [Compound 1-256, (4′-(6-Ethoxy-pyridin-3-yl)-2′-{[ethyl-(3-phenyl-propionyl)-amino]-methyl}-6-methoxy-biphenyl-3-yl)-acetic acid], the IC50 is less than 300 nM.
Regarding `CCN(Cc1cc(C(F)(F)F)ccc1-c1cc(CC(=O)O)ccc1OC)C(=O)C(C)(C)C` [Compound 1-245, (2′-{[(2,2-Dimethyl-propionyl)-ethyl-amino]-methyl}-6-methoxy-4′-trifluoromethyl-biphenyl-3-yl)-acetic acid], the IC50 lay within 1000 to 30000 nM.
In the case of `CCOc1ccc(-c2ccc(-c3cc(CC(=O)O)ccc3OC)c(CN(CC)C(=O)COc3ccc(Cl)cc3)c2)cn1` [Compound 1-229, [2′-({[2-(4-Chloro-phenoxy)-acetyl]-ethyl-amino}-methyl)-4′-(6-ethoxy-pyridin-3-yl)-6-methoxy-biphenyl-3-yl]-acetic acid], the IC50 is less than 300 nM.
With `CCN(Cc1cc(C(F)(F)F)ccc1-c1cc(CC(=O)O)ccc1OC)C(=O)NCc1ccc(Cl)nc1` [Compound 1-200, {2′-[3-(6-Chloro-pyridin-3-ylmethyl)-1-ethyl-ureidomethyl]-6-methoxy-4′-trifluoromethyl-biphenyl-3-yl}-acetic acid], the IC50 was less than 300 nM.
For the molecule `CCN(Cc1cc(C(F)(F)F)ccc1-c1cc(CC(=O)O)ccc1OC)C(N)=O` [Compound 1-210, {2′-[(1-Ethyl-ureido)-methyl]-6-methoxy-4′-trifluoromethyl-biphenyl-3-yl}-acetic acid], the IC50 was less than 300 nM.
